Experimental data taken from ChEMBL document CHEMBL3813687, “A combined ligand- and structure-based approach for the identification of rilmenidine-derived compounds which synergize the antitumor effects of doxorubicin” (Bioorg Med Chem, 2016).
The source made the active and inactive calls. The calls are words filed in the database; no cut-off is given here.

How the values were obtained:
K562 [1] = assay: Potentiation of 1 uM doxorubicin-induced cytotoxicity in human K562 cells assessed as combination index at 70 uM after 48 hrs by MTT assay relative to control; format: functional
[2] = target: Tyrosine-protein kinase ABL1 (Homo sapiens) (UniProt P00519); assay: Inhibition of recombinant human N-terminal His-tagged ABL expressed in baculovirus infected sf9 cells using abtide as substrate assessed as residual activity at 100 uM in presence of NP40 by [gamma32P]ATP filter binding assay relative to control
K562 [3] = assay: Antiproliferative activity against human K562 cells at 70 uM after 24 hrs by clonogenic assay relative to control; format: functional; details: K562, 24 h, read-out: GI
[4] = target: Proto-oncogene tyrosine-protein kinase Src (Homo sapiens) (UniProt P12931); assay: Inhibition of recombinant human N-terminal poly His/GST-tagged SRC expressed in baculovirus infected insect cells using KVEKIGEGTYGVVYK peptide substrate assessed as residual activity at 100 uM by [gamma32P]ATP filter binding assay relative to control
K562 [5] = assay: Potentiation of 1 uM doxorubicin-induced cytotoxicity in human K562 cells assessed as inhibition of cell survival at 70 uM after 48 hrs by MTT assay relative to control; format: functional
[6] = target: T1, Alpha-2A adrenergic receptor (Homo sapiens, UniProt P08913); assay: Displacement of [3H]RS-79948-197 from recombinant human alpha2A adrenoreceptor expressed in CHOK1 cell membrane by scintillation counting method; format: cell membranes, CHO-K1; details: read-out: Ki(app)
T1 sequence (P08913 whole entry): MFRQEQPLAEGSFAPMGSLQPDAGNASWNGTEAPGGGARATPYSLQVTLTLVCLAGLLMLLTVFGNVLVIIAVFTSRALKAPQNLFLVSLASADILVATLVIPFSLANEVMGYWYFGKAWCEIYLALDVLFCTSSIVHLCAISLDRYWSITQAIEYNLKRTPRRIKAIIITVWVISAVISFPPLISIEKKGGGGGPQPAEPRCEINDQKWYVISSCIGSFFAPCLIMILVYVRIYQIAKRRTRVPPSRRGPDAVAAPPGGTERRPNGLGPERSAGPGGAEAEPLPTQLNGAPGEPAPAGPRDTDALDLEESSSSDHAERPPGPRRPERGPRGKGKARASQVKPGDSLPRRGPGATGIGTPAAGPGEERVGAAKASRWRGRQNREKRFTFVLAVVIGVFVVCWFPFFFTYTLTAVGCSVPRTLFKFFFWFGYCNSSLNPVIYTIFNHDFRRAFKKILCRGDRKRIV

K562 [7] = assay: Potentiation of 1.4 uM doxorubicin-induced cytotoxicity in human K562 cells assessed as combination index at 100 uM after 48 hrs by MTT assay relative to control; format: functional
K562 [8] = assay: Potentiation of 0.36 uM doxorubicin-induced cytotoxicity in human K562 cells assessed as combination index at 25 uM after 48 hrs by MTT assay relative to control; format: functional
K562 [9] = assay: Cell cycle arrest in human K562 cells assessed as accumulation at S phase at 70 uM after 48 hrs by propidium iodide staining based flow cytometry (reference value: 29%); format: functional
K562 [10] = assay: Potentiation of doxorubicin-induced apoptosis in human K562 cells assessed as necrotic cells at 70 uM after 48 hrs by Annexin V-FITC/propidium iodide staining based flow cytometry (reference value: 1%); format: functional
K562 [11] = assay: Antiproliferative activity against human K562 cells assessed as inhibition of cell survival after 48 hrs by MTT assay; format: functional, cell-based; details: K562, 48 h
[12] = target: Proto-oncogene tyrosine-protein kinase Src (Homo sapiens) (UniProt P12931); assay: Inhibition of recombinant human N-terminal poly His/GST-tagged SRC expressed in baculovirus infected insect cells using KVEKIGEGTYGVVYK peptide substrate assessed as residual activity at 100 uM in presence of NP40 by [gamma32P]ATP filter binding assay relative to control
K562 [13] = assay: Potentiation of doxorubicin-mediated cell cycle arrest in human K562 cells assessed as increase in sub-G1 cell population after 48 hrs by propidium iodide staining based flow cytometry; format: functional
K562 [14] = assay: Potentiation of 1.4 uM doxorubicin-induced cytotoxicity in human K562 cells assessed as inhibition of cell survival at 100 uM after 48 hrs by MTT assay relative to control; format: functional
K562 [15] = assay: Potentiation of 0.7 uM doxorubicin-induced cytotoxicity in human K562 cells assessed as inhibition of cell survival at 50 uM after 48 hrs by MTT assay relative to control; format: functional
K562 [16] = assay: Potentiation of 0.7 uM doxorubicin-induced cytotoxicity in human K562 cells assessed as combination index at 50 uM after 48 hrs by MTT assay relative to control; format: functional
K562 [17] = assay: Cell cycle arrest in human K562 cells assessed as accumulation at sub-G1 phase at 70 uM after 48 hrs by propidium iodide staining based flow cytometry (reference value: 3%); format: functional
K562 [18] = assay: Induction of apoptosis in human K562 cells assessed as late apoptotic cells at 70 uM after 48 hrs by Annexin V-FITC/propidium iodide staining based flow cytometry (reference value: 1%); format: functional
K562 [19] = assay: Induction of apoptosis in human K562 cells assessed as early apoptotic cells at 70 uM after 48 hrs by Annexin V-FITC/propidium iodide staining based flow cytometry (reference value: 5%); format: functional
[20] = target: T1, Alpha-2A adrenergic receptor; assay: Intrinsic activity at recombinant human alpha2A adrenoreceptor expressed in CHOK1 cell membrane incubated for 30 mins by [35S]GTPgammaS binding assay relative to adrenaline; format: cell membranes; details: CHO-K1, human, 0.5 h; read-out: Intrinsic activity
K562 [21] = assay: Potentiation of doxorubicin-induced apoptosis in human K562 cells assessed as early apoptotic cells at 70 uM after 48 hrs by Annexin V-FITC/propidium iodide staining based flow cytometry (reference value: 5%); format: functional
K562 [22] = assay: Potentiation of 0.36 uM doxorubicin-induced cytotoxicity in human K562 cells assessed as inhibition of cell survival at 25 uM after 48 hrs by MTT assay relative to control; format: functional
K562 [23] = assay: Potentiation of doxorubicin-mediated cell cycle arrest in human K562 cells assessed as decrease in G2/M cell population after 48 hrs by propidium iodide staining based flow cytometry; format: functional
K562 [24] = assay: Cell cycle arrest in human K562 cells assessed as accumulation at G2/M phase at 70 uM after 48 hrs by propidium iodide staining based flow cytometry (reference value: 26%); format: functional
K562 [25] = assay: Inhibition of colony formation in human K562 cells after 24 hrs by clonogenic assay; format: functional, cell-based
K562 [26] = assay: Cell cycle arrest in human K562 cells assessed as accumulation at G0/G1 phase at 70 uM after 48 hrs by propidium iodide staining based flow cytometry (reference value: 42%); format: functional
K562 [27] = assay: Induction of apoptosis in human K562 cells assessed as necrotic cells at 70 uM after 48 hrs by Annexin V-FITC/propidium iodide staining based flow cytometry (reference value: 1%); format: functional
K562 [28] = assay: Potentiation of doxorubicin-induced apoptosis in human K562 cells assessed as late apoptotic cells at 70 uM after 48 hrs by Annexin V-FITC/propidium iodide staining based flow cytometry (reference value: 1%); format: functional
[29] = target: Tyrosine-protein kinase ABL1 (Homo sapiens) (UniProt P00519); assay: Inhibition of recombinant human N-terminal His-tagged ABL expressed in baculovirus infected sf9 cells using abtide as substrate assessed as residual activity at 100 uM by [gamma32P]ATP filter binding assay relative to control

Sequence of Tyrosine-protein kinase ABL1 (Homo sapiens) (P00519 whole entry): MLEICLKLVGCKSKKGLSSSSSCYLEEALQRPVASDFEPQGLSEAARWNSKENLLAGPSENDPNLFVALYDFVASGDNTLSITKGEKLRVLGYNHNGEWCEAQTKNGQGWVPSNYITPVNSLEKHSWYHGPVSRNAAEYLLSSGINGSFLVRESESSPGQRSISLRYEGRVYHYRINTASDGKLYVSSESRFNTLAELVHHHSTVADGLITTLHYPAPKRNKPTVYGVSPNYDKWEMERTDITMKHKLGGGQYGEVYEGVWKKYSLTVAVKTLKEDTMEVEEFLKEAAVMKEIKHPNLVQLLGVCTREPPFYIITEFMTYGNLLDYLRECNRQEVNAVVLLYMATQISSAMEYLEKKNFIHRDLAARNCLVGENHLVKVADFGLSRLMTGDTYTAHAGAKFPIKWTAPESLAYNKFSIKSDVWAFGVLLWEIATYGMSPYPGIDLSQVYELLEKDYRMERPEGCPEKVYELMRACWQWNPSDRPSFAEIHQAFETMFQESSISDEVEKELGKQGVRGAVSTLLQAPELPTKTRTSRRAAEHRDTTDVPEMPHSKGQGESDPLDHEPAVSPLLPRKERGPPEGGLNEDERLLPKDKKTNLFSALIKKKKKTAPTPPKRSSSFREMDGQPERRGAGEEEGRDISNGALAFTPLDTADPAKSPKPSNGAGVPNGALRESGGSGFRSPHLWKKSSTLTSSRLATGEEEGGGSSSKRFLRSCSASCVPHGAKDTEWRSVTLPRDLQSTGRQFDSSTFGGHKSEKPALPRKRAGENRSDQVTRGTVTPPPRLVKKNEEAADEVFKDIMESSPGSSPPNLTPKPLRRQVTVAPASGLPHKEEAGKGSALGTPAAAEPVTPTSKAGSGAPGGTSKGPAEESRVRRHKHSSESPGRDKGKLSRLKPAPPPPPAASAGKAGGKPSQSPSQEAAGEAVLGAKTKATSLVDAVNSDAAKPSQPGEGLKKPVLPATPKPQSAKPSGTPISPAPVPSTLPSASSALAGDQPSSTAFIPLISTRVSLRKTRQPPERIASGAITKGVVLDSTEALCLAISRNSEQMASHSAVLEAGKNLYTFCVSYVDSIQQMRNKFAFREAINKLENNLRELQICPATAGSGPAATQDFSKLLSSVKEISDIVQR
Sequence of Proto-oncogene tyrosine-protein kinase Src (Homo sapiens) (P12931 2-536 limits assumed): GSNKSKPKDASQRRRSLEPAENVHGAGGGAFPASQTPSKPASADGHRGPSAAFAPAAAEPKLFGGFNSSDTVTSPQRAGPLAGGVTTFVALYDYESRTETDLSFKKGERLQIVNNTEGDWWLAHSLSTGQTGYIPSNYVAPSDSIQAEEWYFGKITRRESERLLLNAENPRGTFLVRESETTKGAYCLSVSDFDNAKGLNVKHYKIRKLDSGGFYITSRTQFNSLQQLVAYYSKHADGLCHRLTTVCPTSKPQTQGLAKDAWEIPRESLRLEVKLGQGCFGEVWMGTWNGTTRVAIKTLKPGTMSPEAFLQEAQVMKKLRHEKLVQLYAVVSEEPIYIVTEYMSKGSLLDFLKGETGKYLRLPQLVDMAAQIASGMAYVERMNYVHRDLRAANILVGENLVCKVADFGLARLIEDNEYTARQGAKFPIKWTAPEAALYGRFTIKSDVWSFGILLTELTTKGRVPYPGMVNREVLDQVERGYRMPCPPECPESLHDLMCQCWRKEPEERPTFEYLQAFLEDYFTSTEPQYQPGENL

`CN1CCCCC1CCn1c2ccccc2c2ccccc21` (centres undefined) was tested. Which Ratio (K562 [1]) did it give?
Its Ratio is 0.617.

What about the Activity [2] of the same compound?
Its Activity is 100%.

And the inhibition of growth at 70 µM (K562 [3])?
The inhibition of growth at 70 µM was 88%.

What about the Activity [4] of the same compound?
Its Activity is 100%.

What about the “inhibition (INH)” value (K562 [5]) of the same compound?
Its value is 72.21%.

And the Ki [6]?
Its Ki is 1.2 µM.

What about the Ratio (K562 [7]) of the same compound?
The Ratio was 0.688.

And the Ratio (K562 [8])?
Its Ratio is 0.877.

What about the Activity (K562 [9]) of the same compound?
The Activity was 16%.

What about the Activity (K562 [10]) of the same compound?
Its Activity is 1%.

What about the IC50 (K562 [11]) of the same compound?
The IC50 was 70 µM.

What about the Activity [12] of the same compound?
The Activity was 96%.

And the Activity (K562 [13])?
Its Activity is “Active”.

And the “inhibition (INH)” value (K562 [14])?
The value was 78.21%.

What about the “inhibition (INH)” value (K562 [15]) of the same compound?
The value was 68.62%.

What about the Ratio (K562 [16]) of the same compound?
The Ratio was 0.511.

What about the Activity (K562 [17]) of the same compound?
Its Activity is 44%.

And the Activity (K562 [18])?
Its Activity is 13%.

And the Activity (K562 [19])?
The Activity was 40%.

What about the Emax [20] of the same compound?
The Emax was -3%.

What about the Activity (K562 [21]) of the same compound?
The Activity was 64%.

And the “inhibition (INH)” value (K562 [22])?
The value was 45.75%.

And the Activity (K562 [23])?
The Activity was “Active”.

What about the Activity (K562 [24]) of the same compound?
Its Activity is 10%.

What about the inhibition (K562 [25]) of the same compound?
Its inhibition is “Dose-dependent effect”.

And the Activity (K562 [26])?
Its Activity is 30%.

And the Activity (K562 [27])?
Its Activity is 9%.

What about the Activity (K562 [28]) of the same compound?
Its Activity is 2%.

And the Activity [29]?
The Activity was 94%.
